For 11 compounds, IC50 and EC50 results are on record in US5545640A, “Protease inhibiting succinic acid derivatives” (Bio-Mega/Boehringer Ingeleheim Research Inc., priority 1995, dated 1996).

In test [1] the target is T1, HIV protease (Human immunodeficiency virus type 1 group M subtype B, UniProt P04585).
T1 construct: an HIV-encoded enzyme known as HIV protease
Description: biochemical. The following applies: read-out: IC50 (concentration causing 50% inhibition of HIV protease). From the text:
The procedure is based on the capacity of the test compound to inhibit enzymatic cleavage by HIV protease of a decapeptide (the substrate) having an amino acid sequence which includes a known HIV protease cleavage site of a HIV polyprotein; see H. G. Krausslich et al., Proc. Natl. Acad. Sci. USA, 86, 807 (1989).
Anderson, S. Rakhit and C. Yoakim in the European patent application 443 560, published Aug. 28, 1991.

The subject of test [2] is HIV (H9/HTLV-IIIB stock) in C8166 cells. As to the kind of experiment: Cell culture assay: inhibition of syncytia formation in HIV-infected C8166 cells (antiviral, anti-HIV effect). It counts as cell-based, HIV (HTLV-IIIB); human T4 cell line. The note with it: read-out: EC50 (concentration causing 50% inhibition of syncytia formation). From the text:
Typical of such procedures are those described by S. Harada and N. Yamamoto, Jpn. J. Cancer Res. (Gann), 76, 432 (1985), and S. Harada et al., Science, 229, 563 (1985). An assay based on the latter procedures is described in the examples hereinafter.
In addition, Tables 1 to 8 list the results for exemplified compounds of formula 1 when assayed for antiviral (anti-HIV) effects according to the following protocol which is based on a cell culture assay previously described by Harada et al., supra. Transformed cells are used because of the rapidity with which HIV will replicate in the cells.
1. The test compound is dissolved in dimethylsulfoxide to a concentration of 5 mg/mL. The resultant solution .can be stored at 4° until use.
2. The resultant solution is diluted in RPMI 1640 (Gibco Laboratories, St. Lawrence, Mass., USA) to four times (4×) the final concentration which is to be tested. Once diluted in RPMI 1640, the solution is used in the cell culture assay within 4 h.
3. The latter solution (50 μL) is added to triplicate wells of a 96 well flat bottomed microtiter plate. RPMI (50 μL) also is added to control wells.
4. C8166 cells (5×10^4) in 50 μL of HEPES-buffered RPMI 1640 (pH=7.2), 10% heat inactivated fetal calf serum (FCS), […] gentamicin (complete media) are added to all wells.
5. Fifty times TCID50 of H9/HTLV-IIIB stock (stored in liquid nitrogen as cell culture supernatant in 50% FCS) in 100 μL of complete media is added to all wells. The infectious titer of the virus stocks is as previously determined by end point dilution on C8166 cells. The titer of stocks are stable for 6-12 months when stored at -193°.
6. Microtiter plates are then placed on level shelves of a 37°, 5% CO2 humidified incubator for 72 h.
7. Plates are then removed and centers of syncytia are counted in each well by low power phase contrast light microscopy. […] Control wells should have between 25 and 75 centers of syncytia per well.
8. Percent inhibition of syncytia formation is calculated by the formula: [formula]
The concentration of the test compound which causes a 50% inhibition of syncytia formation, i.e. the EC50, is determined by using the technique of serial dilution of the working solution at step 3 and graphically plotting the observed percent inhibition of syncytia formation against the various concentrations of the test compound.
In the following tables, assay results are listed for the exemplified compounds from the aforementioned recombinant HIV protease HPLC assay under the heading IC50 (nM) and from the cell culture assay under the heading EC50 (nM). Note that for some of the compounds listed in tables, the EC50 's have not been determined (ND).

Where [3] appears, read: recombinant HIV protease, decapeptide substrate, HPLC assay.
Setting [4] is: Human immunodeficiency virus 1, C8166 cells, H9/HTLV-IIIB, 50 times TCID50, 72 h, 37°.

Each structure is given as a SMILES string. Where two headings read alike, the source gives them in different places.

For `Cc1cccc(C)c1NC(=O)C[C@@H](C(=O)NC[C@@H](O)[C@H](Cc1ccccc1)NC(=O)[C@@H](NC(=O)c1ccc2ccccc2n1)[C@@H](C)O)C(C)(C)C` [Entry 46], in test [1] (setting [3]), the IC50 turned out to be 2 nM. Also, in test [2] (setting [4]), the EC50 was found to be 30 nM.

Consider `CCCC(CCC)NC(=O)C[C@@H](C(=O)NC[C@@H](O)[C@H](Cc1ccccc1)NC(=O)[C@H](CC(N)=O)NC(=O)c1ccc2ccccc2n1)C(C)(C)C` [Entry 44], for which, in test [1] (setting [3]), the IC50 was 4 nM. For the same compound, the EC50 in test [2] (setting [4]) is 57 nM.

Consider `CCC(CC)NC(=O)C[C@@H](C(=O)NC[C@@H](O)[C@H](Cc1ccccc1)NC(=O)c1cccc(N)c1C)C(C)(C)C` [Entry 69], for which the IC50 in test [1] (setting [3]) was 5.3 nM. The EC50 in test [2] (setting [4]) came out at 258 nM.

On to `CCC(CC)NC(=O)C[C@@H](C(=O)NC[C@@H](O)[C@H](Cc1ccccc1)NC(=O)[C@@H](NC(=O)c1cnc2ccccc2n1)C(C)C)C(C)(C)C` [Entry 31], for which the IC50 in test [1] came out at 3 nM. In addition, the EC50 in test [2] (setting [4]) is 25 nM.

On to `CCC(CC)NC(=O)C[C@@H](C(=O)NC[C@@H](O)[C@H](Cc1ccccc1)NC(=O)[C@H](CC(N)=O)NC(=O)c1cccc2cccnc12)C(C)(C)C` [Entry 10], for which the IC50 in test [1] (setting [3]) worked out at 15 nM. For the same compound, the EC50 in test [2] (setting [4]) was determined as 270 nM.

Consider `CCC(CC)NC(=O)C[C@@H](C(=O)NC[C@@H](O)[C@H](Cc1ccccc1)NC(=O)c1cc2ccccc2n1C)C(C)(C)C` [Entry 64], for which the IC50 in test [1] (setting [3]) was 8.9 nM. Moreover, the EC50 in test [2] (setting [4]) came to 640 nM.

In the case of `CCC(CC)NC(=O)CC(C(=O)NC[C@@H](O)[C@H](Cc1ccccc1)NC(=O)[C@H](CC(N)=O)NC(=O)OCc1ccccc1)C(C)(C)C` (stereo partly shown) [Entry 49], in test [1] (setting [3]), the IC50 stood at 13 nM. Further, in test [2] (Human immunodeficiency virus 1, IIIB, C8166, 72 h), the EC50 was 1300 nM.

Regarding `CCC(CC)NC(=O)CC(C(=O)NC[C@@H](O)[C@H](Cc1ccccc1)NC(=O)[C@@H](NC(=O)OCc1ccccc1)C(C)(C)C)C(C)(C)C` (stereo partly shown) [Entry 53], the IC50 in test [1] (setting [3]) was found to be 6 nM. Also, the EC50 in test [2] (setting [4]) is 90 nM.

Take `CCC(CC)NC(=O)C[C@@H](C(=O)NC[C@@H](O)[C@H](Cc1ccccc1)NC(=O)[C@H](CC(N)=O)NC(=O)OCCc1ccccc1)C(C)(C)C` [Entry 40]: in test [1] (setting [3]), the IC50 was found to be 4 nM. Further, the EC50 in test [2] (setting [4]) is 570 nM.

Turning to `CCC(CC)NC(=O)CC(C(=O)NC[C@@H](O)[C@H](Cc1ccccc1)NC(=O)[C@H](CC(N)=O)NC(=O)c1ccc2ccccc2n1)C(C)(C)C` (stereo partly shown) [Entry 52], the IC50 in test [1] (setting [3]) stood at 6 nM. In addition, in test [2] (setting [4]), the EC50 was 130 nM.

In the case of `CCC(CC)NC(=O)C[C@@H](C(=O)NC[C@@H](O)[C@H](Cc1ccccc1)NC(=O)[C@@H](NC(C)=O)C(C)C)C(C)(C)C` [Entry 28], the IC50 in test [1] (setting [3]) came to 4 nM. For the same compound, in test [2] (setting [4]), the EC50 was 530 nM.
